Tests used:
[1] = target: T1, PI3Kα kinase (Homo sapiens, UniProt P42336); assay: PI3Kα assay (32P incorporation into phosphatidylinositol, TLC densitometry); format: biochemical; details: for inhibition at 1 µM: At 1000 nM; for inhibition at 0.1 µM: At 100 nM
T1 construct: purchased Millipore, USA
In short: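 Human PI3Kα (20 ng) with 12.5 μg phosphatidylinositol, 10 μM ATP plus [γ-32P]ATP in 10 mM Hepes pH 7.5, 50 mM MgCl2; 20 min at 30° C. Lipids extracted in MeOH/chloroform, resolved by silica TLC, and 32P-labelled PI quantified by autoradiography densitometry.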

[2] = test system: PI3K α; assay: PI3K activity assay, cell-based ELISA of AKT (Ser 473) phosphorylation; details: Homo sapiens, Ovarian cell line A2780, 20% FCS stimulation
Method: The assay was designed as in the reference, Biochemical Journal, 2000, 350, 717-722, the disclosure of which is incorporated by reference for the teaching of the assay.
Seed cells (Ovarian cell line A2780, ATCC) were plated in a 96 well microtitre plate at a density of 50,000 cells/cm^2 in appropriate complete cell culture medium. The cells were allowed to adhere for 18-24 hours. The cells were allowed to starve for 24 hours. The cells were pretreated (in triplicates) with the compounds of Example 1-40 (stock solution was prepared in DMSO and subsequent dilutions were made in kinase buffer) at a concentration of 10 μM for one hour. Then the cells were stimulated with 20% FCS for 30 minutes. A typical assay would consist of a set of unstimulated cells, a set of stimulated cells and a set of cells treated with compounds of Example 1-40 and a set of cells treated with the stimulator. The medium was discarded. The cells were fixed with 100 μL of 3.7% formaldehyde for 15 minutes. The formaldehyde was discarded by inverting the plate and tapping it on a thick tissue paper layer to remove traces. The cells were washed and permeabilized with 200 μL PBS+Triton-X 100 solution (hereafter referred to as PBS-Triton, containing 0.1% triton-X 100 in 1×PBS) three times, incubating the cells each time for 5 minutes. 100 μL blocking solution (10% FCS in PBS-Triton) was added and incubated for 1 hour at 25° C. The blocking solution was discarded and cells were incubated with the primary antibody in PBS-Triton at a dilution of 1:500 for 1 hour at RT (25° C.). [The primary antibody is Phospho-AKT (Ser 473); Cell Signaling; USA, Cat. No. 9271]. The primary antibody solution was discarded and the cells were washed 3 times with PBS-Triton solution and incubated with the HRP-conjugated secondary antibody in PBS-Triton at a dilution of 1:500 for 1 hour at RT (25° C.). The cells were washed 3 times with PBS-Triton followed by two washes with PBS (to remove traces of triton-X 100). The OPD (o-phenylene diamine dihydrochloride) substrate was prepared for detection of the signal by dissolving one tablet set (two tablets) of SigmaFast OPD (Sigma, USA, Cat No. P9187) in 20 mL distilled water. It should be kept protected from light. 100 μL OPD solutions was added to the wells and the plate was incubated in the dark for 3-5 minutes (depending upon the development of the color). The reaction was stopped by adding 50 μL 2 NH2SO4. The absorbance was measured at 490 nm. The values were expressed in the treated samples, in terms of percentage or fold decrease in AKT phosphorylation with respect to the induced sample. PI-103 (Calbiochem, USA) was used as a standard.

[3] = test system: H460; assay: Cytotoxicity, propidium iodide assay, H460; format: cell-based; details: Homo sapiens, NCI-H460; Lung, H460, 48 hours treatment; read-out: IC50, C1b (H460)
In short: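 Cells seeded at 3000 cells/well, incubated 18-24 hours at 37° C./5% CO2, then exposed to a range of compound concentrations for 48 hours. After a PBS wash, 7 μg/ml propidium iodide was added, plates frozen at −70° C. for at least 24 hours, thawed and read by fluorescence; IC50 from viability relative to untreated wells.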

[4] = test system: MDA MB 231; assay: Cytotoxicity, propidium iodide assay, MDA MB 231; format: cell-based; details: Homo sapiens; Breast, MDA MB 231, 48 hours treatment; read-out: IC50, C6a (MDA MB 231)
Method: (§1) The assay was designed as in the reference, Anticancer Drugs, 2002, 13, 1-8, the disclosure of which is incorporated by reference for the teaching of the assay.
(§2) Cells from cell lines as mentioned in the table given below were seeded at a density of 3000 cells/well in a white opaque 96-well plate. Following incubation at 37° C./5% CO2 for a period of 18-24 hours, the cells were treated with various concentrations (stock solution was prepared in DMSO and subsequent dilutions were made in media as per ATCC guidelines) of the compounds of Example 1-40 was for a period of 48 hours. At the end of treatment, the spent culture medium was discarded, the cells were washed with 1×PBS and 200 μl of 7 μg/ml propidium iodide was added to each well. The plates were frozen at −70° C. for at least 24 hours. For analysis, the plates were brought to RT, allowed to thaw and were read in PoleStar fluorimeter with the fluorescence setting. The percentage of viable cells in the non-treated set of wells was considered to be 100 and the percentage viability following treatment was calculated accordingly. IC50 values were calculated from graphs plotted using these percentages. Table 4 depicts the IC50 values of compounds of Example 1-40 in individual cell lines.
(§3) The abbreviations for the Cell Lines as used in Table 4 are: […]

[5] = test system: MCF7; assay: Cytotoxicity, propidium iodide assay, MCF7; format: cell-based; details: Homo sapiens; Breast, MCF7, 48 hours treatment; read-out: IC50, C6c (MCF7)
Method: as §1, §2, §3

[6] = test system: BT 549; assay: Cytotoxicity, propidium iodide assay, BT 549; format: cell-based; details: Homo sapiens; Breast, BT 549, 48 hours treatment; read-out: IC50, C6d (BT 549)
Method: as §1, §2, §3

[7] = test system: T47D; assay: Cytotoxicity, propidium iodide assay, T47D; format: cell-based; details: Homo sapiens, Breast, 48 hours treatment, read-out: IC50, C6e (T47D)
Method: as §1, §2, §3

[8] = test system: U 87 MG; assay: Cytotoxicity, propidium iodide assay, U 87 MG; format: cell-based; details: Homo sapiens, Glioblastoma, 48 hours treatment, read-out: IC50, C7b (U 87 MG)
Method: as §1, §2, §3

[9] = test system: BxPC3; assay: Cytotoxicity, propidium iodide assay, BxPC3; format: cell-based; details: Homo sapiens, BXPC-3; Pancreatic, BxPC3, 48 hours treatment; read-out: IC50, C5c (BxPC3)
Method: as §1, §2, §3

T1 sequence (P42336 whole entry): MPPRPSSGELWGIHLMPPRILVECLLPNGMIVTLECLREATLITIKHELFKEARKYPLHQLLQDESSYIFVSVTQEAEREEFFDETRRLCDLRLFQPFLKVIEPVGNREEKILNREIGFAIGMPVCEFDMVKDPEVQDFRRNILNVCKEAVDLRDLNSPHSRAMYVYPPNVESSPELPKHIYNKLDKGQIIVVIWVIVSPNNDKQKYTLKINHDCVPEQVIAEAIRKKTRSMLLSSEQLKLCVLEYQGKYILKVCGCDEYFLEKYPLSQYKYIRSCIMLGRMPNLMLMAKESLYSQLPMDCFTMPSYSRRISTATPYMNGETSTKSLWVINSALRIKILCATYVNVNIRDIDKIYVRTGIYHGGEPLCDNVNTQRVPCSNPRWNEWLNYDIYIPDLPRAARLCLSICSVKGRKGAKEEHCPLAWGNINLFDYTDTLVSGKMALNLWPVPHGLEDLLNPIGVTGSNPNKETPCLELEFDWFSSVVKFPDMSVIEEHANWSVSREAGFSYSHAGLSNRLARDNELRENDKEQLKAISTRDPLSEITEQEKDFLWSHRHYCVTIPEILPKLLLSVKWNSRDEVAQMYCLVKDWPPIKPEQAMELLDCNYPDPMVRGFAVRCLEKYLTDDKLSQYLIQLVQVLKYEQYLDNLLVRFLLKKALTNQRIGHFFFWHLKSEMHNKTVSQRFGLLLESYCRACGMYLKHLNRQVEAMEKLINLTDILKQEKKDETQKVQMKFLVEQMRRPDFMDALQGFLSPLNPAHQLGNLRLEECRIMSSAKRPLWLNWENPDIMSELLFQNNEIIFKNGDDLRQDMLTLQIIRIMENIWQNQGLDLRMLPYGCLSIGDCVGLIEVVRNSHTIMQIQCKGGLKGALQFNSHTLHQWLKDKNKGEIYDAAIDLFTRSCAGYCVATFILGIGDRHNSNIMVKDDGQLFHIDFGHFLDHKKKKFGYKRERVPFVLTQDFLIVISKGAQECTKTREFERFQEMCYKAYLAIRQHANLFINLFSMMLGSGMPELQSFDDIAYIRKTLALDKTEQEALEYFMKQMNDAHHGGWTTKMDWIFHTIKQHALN
T1 sequence (P27986 whole entry partner): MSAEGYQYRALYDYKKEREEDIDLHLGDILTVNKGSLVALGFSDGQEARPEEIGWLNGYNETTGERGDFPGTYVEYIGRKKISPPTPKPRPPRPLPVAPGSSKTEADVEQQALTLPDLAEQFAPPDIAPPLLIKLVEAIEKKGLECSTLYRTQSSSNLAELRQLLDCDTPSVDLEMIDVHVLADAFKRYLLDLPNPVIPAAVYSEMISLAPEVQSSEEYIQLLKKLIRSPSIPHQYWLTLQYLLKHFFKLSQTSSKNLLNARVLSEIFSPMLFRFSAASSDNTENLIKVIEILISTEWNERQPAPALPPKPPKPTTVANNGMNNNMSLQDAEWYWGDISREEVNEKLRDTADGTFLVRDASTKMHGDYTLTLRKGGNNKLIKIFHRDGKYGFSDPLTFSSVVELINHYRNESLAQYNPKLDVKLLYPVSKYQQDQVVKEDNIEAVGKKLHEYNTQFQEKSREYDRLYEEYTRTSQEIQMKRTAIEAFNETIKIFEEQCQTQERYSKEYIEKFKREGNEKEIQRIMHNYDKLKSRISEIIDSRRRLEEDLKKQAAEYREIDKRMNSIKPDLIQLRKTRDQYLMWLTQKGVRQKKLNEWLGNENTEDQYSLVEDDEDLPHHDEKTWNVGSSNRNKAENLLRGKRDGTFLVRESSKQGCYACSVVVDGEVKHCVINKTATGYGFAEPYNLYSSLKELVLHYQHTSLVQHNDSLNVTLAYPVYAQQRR

| SMILES | inhibition at 1 µM [1] | inhibition at 10 µM [2] | IC50 [3] | IC50 [4] | IC50 [5] | IC50 [6] | IC50 [7] | inhibition at 0.1 µM [1] | IC50 [8] | IC50 [9] |
| --- | --- | --- | --- | --- | --- | --- | --- | --- | --- | --- |
| C/C=C/C(=O)n1c(=O)n(-c2ccc(C(C)(C)C#N)cc2)c2c3cc(Br)ccc3ncc21 [Example 27, (E)-2-(4-(8-Bromo-3-but-2-enoyl-2-oxo-2,3-dihydro-1H-imidazo[4,5-c]quinolin-1-yl)phenyl)-2-methylpropanenitrile] | 10 to 50% | > 50% | ≤ 1000 nM | ≤ 1000 nM | ≤ 1000 nM | ≤ 1000 nM | ≤ 1000 nM |  |  |  |
| C/C=C/C(=O)n1c(=O)n(-c2ccc(C(C)(C)C#N)cc2)c2c3cc(Cl)ccc3ncc21 [Example 38, (E)-2-(4-(3-But-2-enoyl-8-chloro-2-oxo-2,3-dihydro-1H-imidazo[4,5-c]quinolin-1-yl)phenyl)-2-methylpropanenitrile] | 10 to 50% | > 50% | ≤ 1000 nM | ≤ 1000 nM | ≤ 1000 nM | ≤ 1000 nM | ≤ 1000 nM |  |  |  |
| CC(C)(C#N)c1ccc(-n2c(=O)n(C(=O)c3ccccc3)c3cnc4ccc(Cl)cc4c32)cc1 [Example 37, 2-(4-(3-Benzoyl-8-chloro-2-oxo-2,3-dihydro-1H-imidazo[4,5-c]quinolin-1-yl)phenyl)-2-methylpropanenitrile] |  |  | 1000 to 3000 nM |  |  |  |  | 10 to 50% | > 3000 nM |  |
| Cc1cccc(S(=O)(=O)n2c(=O)n(-c3ccc(C(C)(C)C#N)cc3)c3c4cc(Br)ccc4ncc32)c1 [Example 3, 2-(4-(8-Bromo-2-oxo-3-(m-tolylsulfonyl)-2,3-dihydro-1H-imidazo[4,5-c]quinolin-1-yl)phenyl)-2-methylpropanenitrile] |  | 10 to 50% | ≤ 1000 nM |  |  |  |  | 10 to 50% | 1000 to 3000 nM | ≤ 1000 nM |
| CC(C)(C#N)c1ccc(-n2c(=O)n(C(=O)c3ccccc3)c3cnc4ccc(Br)cc4c32)cc1 [Example 30, 2-(4-(3-Benzoyl-8-bromo-2-oxo-2,3-dihydro-1H-imidazo[4,5-c]quinolin-1-yl)phenyl)-2-methylpropanenitrile] |  | 10 to 50% | ≤ 1000 nM |  |  |  |  | > 50% |  | ≤ 1000 nM |
